Data set [1] concerns Macrophage. As to the kind of experiment: Inhibition of FMS-induced proliferation of bone marrow derived human macrophages. The data set is classed as functional, cell-based.
The target in data set [2] is Macrophage colony-stimulating factor 1 receptor (Homo sapiens, UniProt P07333). Description: biochemical.
Data set [3] concerns Mus musculus. Description: Reduction in progression of collagen-induced arthritis scores in mouse CIA model at 5 mg/kg, po bid. The data set is classed as functional. Also on record: scale not given: the % may be the effect or the level left.
Data set [4] addresses Mast/stem cell growth factor receptor Kit (Homo sapiens, UniProt P10721). As to the kind of experiment: Inhibition of Kit after 30 mins by fluorescence polarization. In general terms: Polarisation of emitted light reports the rotation of a fluorescent probe.
The species entered for data set [5] is Mus musculus. As to the kind of experiment: Reduction in bone destruction in mouse CIA model BID for 14 days. Format: functional. Also on record: scale not given: the % may be the effect or the level left.
For data set [6], the system named is Mus musculus. As to the kind of experiment: Reduction in progression of collagen-induced arthritis scores in mouse CIA model at 30 mg/kg, po bid. Format: functional. Also on record: scale not given: the % may be the effect or the level left.
Data set [7] is described as follows: Volume of distribution in CD1 mouse at 2 mg/kg, iv and 10 mg/kg, po. The data set is classed as ADME, organism-based. Conditions: in vivo, read-out: Vdss.
Data set [8] in a line: Cmax in CD1 mouse at 2 mg/kg, iv and 10 mg/kg, po. Conditions: in vivo. Format: ADME, organism-based.
A short description of data set [9]: Oral bioavailability in CD1 mouse at 10 mg/kg. Conditions: in vivo. The data set is classed as ADME, organism-based.
For data set [10], the target named is High affinity nerve growth factor receptor (Homo sapiens, UniProt P04629). As to the kind of experiment: Inhibition of TrkA after 27 mins by fluorescence polarization.
The species named for data set [11] is Mus musculus. As to the kind of experiment: Reduction in pannus formation in mouse CIA model BID for 14 days. The data set is classed as functional. Also on record: scale not given: the % may be the effect or the level left.
Data set [12] is described as follows: Half life in CD1 mouse at 2 mg/kg, iv and 10 mg/kg, po. The data set is classed as ADME, organism-based. Conditions: in vivo.

We go through 23 compounds from ChEMBL document CHEMBL1141497, “Discovery of novel FMS kinase inhibitors as anti-inflammatory agents” (Bioorg Med Chem Lett, 2008).

Macrophage colony-stimulating factor 1 receptor, sequence (P07333 whole entry): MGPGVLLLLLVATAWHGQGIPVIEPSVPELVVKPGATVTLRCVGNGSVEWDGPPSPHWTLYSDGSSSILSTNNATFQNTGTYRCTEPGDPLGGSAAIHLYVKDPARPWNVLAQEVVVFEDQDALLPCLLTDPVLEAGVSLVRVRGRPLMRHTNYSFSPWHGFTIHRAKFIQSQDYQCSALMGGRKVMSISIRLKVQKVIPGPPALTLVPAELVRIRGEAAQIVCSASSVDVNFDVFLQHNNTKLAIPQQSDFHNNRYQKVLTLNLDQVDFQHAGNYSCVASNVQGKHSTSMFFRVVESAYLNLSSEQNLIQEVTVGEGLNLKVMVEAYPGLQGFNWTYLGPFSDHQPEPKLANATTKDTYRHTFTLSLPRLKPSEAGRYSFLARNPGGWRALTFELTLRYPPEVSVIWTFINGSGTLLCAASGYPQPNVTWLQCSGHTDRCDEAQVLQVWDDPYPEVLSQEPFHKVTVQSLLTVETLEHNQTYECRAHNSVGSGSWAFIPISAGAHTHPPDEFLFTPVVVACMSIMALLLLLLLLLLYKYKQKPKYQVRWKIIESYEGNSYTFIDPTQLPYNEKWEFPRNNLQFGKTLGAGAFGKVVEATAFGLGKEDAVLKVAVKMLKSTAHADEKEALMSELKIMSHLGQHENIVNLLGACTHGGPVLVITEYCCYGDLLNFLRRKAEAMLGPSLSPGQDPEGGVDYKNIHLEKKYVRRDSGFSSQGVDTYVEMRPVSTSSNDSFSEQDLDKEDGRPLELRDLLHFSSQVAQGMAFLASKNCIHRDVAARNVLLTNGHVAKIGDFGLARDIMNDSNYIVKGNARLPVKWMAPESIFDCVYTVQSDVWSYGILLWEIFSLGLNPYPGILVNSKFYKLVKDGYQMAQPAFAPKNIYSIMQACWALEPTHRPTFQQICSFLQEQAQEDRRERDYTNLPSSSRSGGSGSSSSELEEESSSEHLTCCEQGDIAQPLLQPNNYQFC
Mast/stem cell growth factor receptor Kit, sequence (P10721 whole entry): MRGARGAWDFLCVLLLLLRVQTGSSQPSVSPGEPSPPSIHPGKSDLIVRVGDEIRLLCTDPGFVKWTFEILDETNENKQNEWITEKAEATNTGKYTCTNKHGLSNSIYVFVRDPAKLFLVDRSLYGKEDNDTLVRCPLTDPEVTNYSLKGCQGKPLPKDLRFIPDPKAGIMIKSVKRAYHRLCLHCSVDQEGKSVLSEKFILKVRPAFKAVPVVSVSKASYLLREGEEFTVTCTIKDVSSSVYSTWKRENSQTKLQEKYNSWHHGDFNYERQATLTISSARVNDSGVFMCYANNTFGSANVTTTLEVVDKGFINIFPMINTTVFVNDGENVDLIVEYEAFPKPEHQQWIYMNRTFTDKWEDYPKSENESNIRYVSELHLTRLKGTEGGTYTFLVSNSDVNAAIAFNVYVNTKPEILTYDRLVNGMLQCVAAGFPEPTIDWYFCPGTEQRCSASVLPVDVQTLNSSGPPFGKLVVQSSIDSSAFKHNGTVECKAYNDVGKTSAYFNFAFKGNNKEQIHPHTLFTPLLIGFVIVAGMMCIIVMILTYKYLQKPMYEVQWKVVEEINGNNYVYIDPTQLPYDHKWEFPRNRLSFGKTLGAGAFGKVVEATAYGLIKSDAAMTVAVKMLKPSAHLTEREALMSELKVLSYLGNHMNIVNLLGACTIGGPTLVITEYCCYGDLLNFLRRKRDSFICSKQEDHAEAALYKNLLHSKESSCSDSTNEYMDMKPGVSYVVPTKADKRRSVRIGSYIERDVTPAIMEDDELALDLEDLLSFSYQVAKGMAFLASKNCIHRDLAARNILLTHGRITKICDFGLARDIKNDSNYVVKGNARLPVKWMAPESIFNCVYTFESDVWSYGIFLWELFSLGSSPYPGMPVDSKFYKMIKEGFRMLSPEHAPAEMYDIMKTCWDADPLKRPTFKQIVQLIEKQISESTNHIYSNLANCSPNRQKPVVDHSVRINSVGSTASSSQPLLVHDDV
High affinity nerve growth factor receptor, sequence (P04629 whole entry): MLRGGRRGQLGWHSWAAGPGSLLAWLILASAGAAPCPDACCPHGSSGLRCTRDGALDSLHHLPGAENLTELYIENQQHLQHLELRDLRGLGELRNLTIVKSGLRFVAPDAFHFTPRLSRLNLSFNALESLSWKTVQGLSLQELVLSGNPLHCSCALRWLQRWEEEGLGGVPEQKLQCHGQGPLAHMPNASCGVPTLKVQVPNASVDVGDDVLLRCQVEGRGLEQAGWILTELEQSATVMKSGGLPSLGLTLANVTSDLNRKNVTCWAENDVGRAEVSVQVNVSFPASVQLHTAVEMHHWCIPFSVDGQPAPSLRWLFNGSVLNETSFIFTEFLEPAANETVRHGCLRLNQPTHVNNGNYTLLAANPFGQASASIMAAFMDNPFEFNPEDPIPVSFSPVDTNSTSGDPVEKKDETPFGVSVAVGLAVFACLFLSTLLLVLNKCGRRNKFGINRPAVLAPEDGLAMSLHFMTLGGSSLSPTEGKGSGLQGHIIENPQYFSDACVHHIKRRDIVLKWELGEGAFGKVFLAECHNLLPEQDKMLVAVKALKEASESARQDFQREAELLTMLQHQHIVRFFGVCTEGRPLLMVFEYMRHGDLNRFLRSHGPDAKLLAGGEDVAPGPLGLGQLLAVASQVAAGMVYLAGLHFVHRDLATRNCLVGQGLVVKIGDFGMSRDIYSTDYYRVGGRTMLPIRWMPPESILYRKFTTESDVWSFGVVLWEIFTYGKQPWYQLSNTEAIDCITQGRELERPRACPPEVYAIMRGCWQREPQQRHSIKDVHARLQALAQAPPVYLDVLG

The IC50 is the concentration needed to halve the response being measured. For the compound `CN1CCN(c2ccc(NC(=O)c3cc(C#N)c[nH]3)c(N3CCCCC3)c2)CC1`, in data set [1], the IC50 turned out to be 0.002 µM.

In turn, `CC1CCN(c2cc(N3CCNCC3)ccc2NC(=O)c2cc(C#N)c[nH]2)CC1` registered an IC50 in data set [2] of 0.001 µM.

For `CC1CCN(c2cc(N3CCOCC3)ccc2NC(=O)c2ccc(C#N)o2)CC1`, in [2], half-maximal inhibition (IC50) required 0.011 µM.

In data set [2], `CS(=O)(=O)Nc1ccc(NC(=O)c2ccc(C#N)o2)c(N2CCCCC2)c1` came in with an IC50 of 0.071 µM.

`CC1CCN(c2cc(N3CCN(S(C)(=O)=O)CC3)ccc2NC(=O)c2ccc(C#N)o2)CC1` gave an IC50 in [2] of 0.0009 µM.

One may read the Cmax as the peak of the concentration-time curve. The term bioavailability denotes the share of a dose that reaches the circulation, judged against a reference dose that is usually intravenous. In general, half-life refers to the time needed for the level to fall by half in the phase considered. In the case of `CC1CCN(c2cc(N3CCN(C)CC3)ccc2NC(=O)c2cc(C#N)c[nH]2)CC1`, the Activity turned out to be 35% in data set [3], 80% in [5], 65% in data set [6] and 80% in data set [11]. Also, the IC50 in data set [4] worked out at 0.0035 µM; in [10], 0.011 µM. In addition, the Vd in [7] worked out at 5.63 L/kg. The concentration in [8] peaked (Cmax) at 0.853 µg/mL. For the same compound, the bioavailability in [9] was found to be 45%. The compound also came in with a half-life in data set [12] of 4.07 h.

For the compound `N#Cc1ccc(C(=O)Nc2ccc(F)cc2N2CCCCC2)o1`, the IC50 in [2] was 0.063 µM.

`CCN(C)CCCc1ccc(NC(=O)c2ccc(C#N)o2)c(N2CCCCC2)c1`: half-maximal inhibition in data set [2] (IC50) was put at 0.052 µM.

Turning to `CC1CCN(c2nc(N3CCN(C)CC3)ccc2NC(=O)c2ccc(C#N)o2)CC1`, in [2], it took 0.01 µM to reach half-maximal inhibition (IC50).

Turning to `Cc1cnn(-c2ccc(NC(=O)c3ccc(C#N)o3)c(N3CCCCC3)c2)c1`, the IC50 in data set [2] came out at 0.064 µM.

With `CN1CCN(c2ccc(NC(=O)c3ccc(C#N)o3)c(N3CCCCC3)c2)CC1`, the midpoint of inhibition in [1], the IC50, lay at 0.005 µM. For the same compound, the Vd in data set [7] was 7.97 L/kg. For the same compound, the peak level in [8] (Cmax) was 0.386 µg/mL. In addition, the bioavailability in [9] worked out at 32%. Moreover, the half-life in data set [12] came to 1.03 h.

As to `CC(=O)N1CCN(c2ccc(NC(=O)c3cc(C#N)c[nH]3)c(N3CCC(C)CC3)c2)CC1`, the midpoint of inhibition in data set [2], the IC50, lay at 0.0007 µM.

In [2], `CN1CCN(C(=O)N(C)c2ccc(NC(=O)c3ccc(C#N)o3)c(N3CCCCC3)c2)CC1` registered an IC50 of 0.083 µM.

In data set [1], `CC1CCN(c2cc(N3CCN(C)CC3)ccc2NC(=O)c2ccc(C#N)o2)CC1` showed an IC50 of 0.002 µM. Moreover, the Vd in [7] worked out at 11.4 L/kg. The Cmax in [8] came out at 0.454 µg/mL. In data set [9], this compound yielded a bioavailability of 39%. The same compound came in with a half-life in data set [12] of 1.63 h.

On to `CC1CCN(c2cc(N3CCN(C)CC3)cnc2NC(=O)c2ccc(C#N)o2)CC1`, for which the midpoint of inhibition in data set [2], the IC50, lay at 0.72 µM.

Compound `N#Cc1ccc(C(=O)Nc2ccc(N3CCCCC3)cc2N2CCCCC2)o1` registered an IC50 in data set [2] of 0.017 µM.

In turn, `CCOc1ccc(NC(=O)c2ccc(C#N)o2)c(N2CCCCC2)c1` showed an IC50 in [2] of 0.021 µM.

`N#Cc1ccc(C(=O)Nc2ccc(-n3ccnc3)cc2N2CCCCC2)o1`: in data set [2], 0.003 µM corresponded to half-maximal inhibition (IC50).

For `CN1CCN(c2ccc(NC(=O)c3ccc(C#N)o3)c(N3CCOCC3)c2)CC1`, the IC50 came out at 2.8 µM in data set [1] and 0.08 µM in data set [2].

Compound `N#Cc1ccc(C(=O)Nc2ccc(N3CCS(=O)(=O)CC3)cc2N2CCCCC2)o1` had a half-maximal inhibitory concentration (IC50) in [2] of 0.0007 µM.

As to `CN(c1ccc(NC(=O)c2ccc(C#N)o2)c(N2CCCCC2)c1)S(C)(=O)=O`, the IC50 in data set [2] worked out at 0.025 µM.

On to `CN1CCN(c2ccc(NC(=O)c3ccc(C#N)o3)c(N3CCCCC3=O)c2)CC1`, for which the results for the IC50 in [1] and in [2] were more than 10 µM and more than 0.06 µM, respectively.

Turning to `CN1CCN(c2ccc(NC(=O)c3ccc(C#N)o3)c(N3CCCC(F)C3)c2)CC1` (configuration not stated), in data set [2], the midpoint of inhibition, the IC50, lay at 0.0063 µM.
